# Test results taken from US9101613B2, “Methods for treating neurological disease” (Neurim Pharmaceuticals (1991) Ltd., priority 2006, dated 2015).
# Key:
# [1] = target: T1, MT-3 receptor (Mesocricetus auratus, UniProt A0ABM2YAB8); assay: 125I-melatonin binding in hamster brain membranes, MT-3
# T1 construct: from tissue; host or cells: hamster brain membranes
# T1 sequence (A0ABM2YAB8 1-231): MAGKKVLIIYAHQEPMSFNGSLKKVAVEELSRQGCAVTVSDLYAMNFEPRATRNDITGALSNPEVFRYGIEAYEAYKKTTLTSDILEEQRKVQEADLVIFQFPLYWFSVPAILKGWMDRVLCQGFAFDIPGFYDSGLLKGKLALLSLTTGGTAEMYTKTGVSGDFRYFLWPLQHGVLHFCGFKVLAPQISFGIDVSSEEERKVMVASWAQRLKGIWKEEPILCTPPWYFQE
# Experimental: Aliquots of suspended membranes of human recombinant CHP-K1 (Chinese hamster ovary) cells stably expressing human melatonin-1 or melatonin-2 (MT-1 or MT-2) receptors or of hamster brain (MT-3) were incubated at 25° C. with 0.05 nM ^125I-melatonin in buffer (25 mM HEPES, pH 7.4, 5 mM MgCl2, 1 mM CaCl2, 0.5% BSA) or with 0.1 nM for MT-3 alone or in the presence of 1 nM, 10 nM, 0.1 μM, 1 μM and 10 μM of test substances N-[2-(5-methoxy-indol-3-yl)-ethyl]-commenamide, N-[2-(5-methoxy-indol-3-yl)-ethyl]-comanilamide, N-[2-(5-methoxy-indol-3-yl)-ethyl]-coumalylamide, N-[2-(5-methoxy-indol-3-yl)-ethyl]-2-methoxy-commenamide, N-[2-(5-methoxy-indol-3-yl)-ethyl]-chelidonamide, O-[2-(5-methoxy-indol-3-yl)-ethyl]-comenic ester, N-[2-(5-methoxy-indol-3-yl)-ethyl]-2-Pyrone-6-carboxamide and N-[2-(2-bromo-5-methoxy-indol-3-yl)-ethyl]-coumalylamide for 3 hours for MT-1, 4 hours for MT-2 and 30 min for MT-3. The binding reaction was terminated and the membranes were washed with 4 ml of ice-cold HEPES buffer by vacuum filtration. Membranes were then collected, and the filters containing the bound ^125I-melatonin were assayed for the amount of radioactivity in a […]. Non-specific binding was evaluated using a reaction with 1 μM 6-chloromelatonin (MT-1 and MT-2) or 30 μM melatonin (MT-3).
# [2] = test system: CD1 mice; assay: Motimeter assay (motor activity and rearing); format: in vivo; details: 100 mg/kg i.p.
# Experimental: Mice were starved for 16 hrs before treatment. Male CD1 mice, weighing 25-30 g, were treated intraperitoneally with melatonin, N-[2-(5-methoxy-indol-3-yl)-ethyl]-comanilamide or N-[2-(5-methoxy-indol-3-yl)-ethyl]-commenamide in a dose of 100 mg/kg. The horizontal (i.e. locomotion) and vertical (i.e. rearing) movements were measured for 5 minutes two times, 30 and 60 min after treatment. Eight mice/group were used. The 4-channel activity meter is a square-shaped frame containing transparent infra-red permeable acrylic cages. The frames feature two pairs of light-beam strips for measuring horizontal movements, and two pairs for measuring rearing. Each strip is equipped with 16 infra-red sensors.
# [3] = test system: 3T3-L1 adipocytes; assay: 2-[3H]-deoxy-d-glucose uptake in FFA-treated 3T3-L1 adipocyte model; format: cell-based
# Experimental: Adipocytes were glucose-starved for 1 h in Hepes-salt buffer containing 2% FFA-free BSA. FFA (free fatty acids) were then added to the cells at the indicated concentrations (300 μM) for the indicated times (3 h). 10 min before the end of the FFA treatment, the cells were stimulated with insulin (20 nM)/melatonin (10 nM)/test compounds (10 nM) at 37° C. 2-[^3H]-deoxy-d-glucose at 1 μCi/mL and 0.1 mM unlabeled 2-deoxyglucose in KRP-HEPES buffer was added and cells were incubated for 10 min at room temperature. Non-specific glucose uptake was measured by parallel incubations in the presence of 10 μM cytochalasin B, which blocks transporter-mediated glucose uptake, and was subtracted from total uptake in each assay. Cells were then washed three times with ice-cold phosphate buffered saline (PBS) and solubilized in 1M NaOH for 20 minutes. The sample was then counted using a scintillation counter. 2-[^3H]-deoxy-d-glucose uptake was assayed in triplicates for each condition in at least 3 independent experiments. 2-[^3H]-deoxy-d-glucose uptake (counts per minute-cpm) are presented as mean+SE of triplicates in a representative experiment or results of three independent experiments. ANOVA test was used with significance of P<0.05 (Table 7).
# [4] = test system: PC12 cells; assay: Glutamate-induced loss of cell viability in PC12 cells (MTT); format: cell-based; details: 1 uM, without glutamate
# Experimental: For the cell viability assays, 24 h after seeding in 96-well plates, the cultures were pretreated with N-[2-(5-methoxy-indol-3-yl)-ethyl]-comanilamide (100 pm, 1 nM, 10 nM, 100 nM, 1 uM and 10 uM) or melatonin (1 uM) for 0 h before exposure to 4 mM glutamate. After 24 h incubation, cellular viability was evaluated by MTT assay.
# PC12 cell viability was determined by the conventional 3-(4,5-dimethylthiazol-2-yl)-2,5-diphenyltetrazolium bromide (MTT) assay. PC12 cells were treated with MTT solution (0.5 mg/ml) and were then incubated at 37° C. for 4 hrs. The medium was removed and 150 μl DMSO/well was added to dissolve formazan. The absorbance at 570 nm was recorded using an enzyme-linked immunosorbent assay reader and the percentage of cell growth inhibition was calculated as follows: Cell viability (%)=A570 (treatment)/A570 (control)×100.
smiles,measurement,setting,value
"COc1ccc2[nH]cc(CCNC(C)=O)c2c1 [Melatonin, N-acetyl-5-methoxy-tryptamine, reference compound]",IC50,"[1]; 0.1 nM 125I-melatonin, 30 min, read-out: MT-3 receptor binding IC50",47 nM
same,Ki,"[1]; 0.1 nM 125I-melatonin, 30 min, read-out: MT-3 receptor binding KI",46 nM
same,inhibition at 10 µM,[1]; read-out: MT-3 receptor binding % inhibition by 10 μM,100%
same,effect on motor activity and rearing,[2]; 30-35 min and 60-65 min after treatment,did not change significantly the motor activity and rearing
same,motor activity (horizontal movement) changes (%) 30 min,"[2]; 30 min, vs vehicle",−26.5%
same,motor activity (horizontal movement) 30 min Means ± SE,"[2]; 30 min after treatment, 5 min measurement",316.1 ± 45.5
same,motor activity (horizontal movement) changes (%) 60 min,"[2]; 60 min, vs vehicle",−19.0%
same,motor activity (horizontal movement) 60 min Means ± SE,"[2]; 60 min after treatment, 5 min measurement",256.1 ± 27.3
same,effect on glucose transport in FFA-treated adipocytes,[3]; FFA-impaired insulin signaling,improved glucose transport
same,2-[3H]-deoxy-d-glucose uptake (cpm),[3]; Insulin 20 nM + FFA 300 μM (3 h) + substance 10 nM,1489 cpm
same,effect on cell viability without glutamate,[4],had no effect on the cell viability
